For series [1], the system named is HepG2. The series can be described thus: Antiproliferative activity against human HepG2 cells measured after 48 hrs by MTT assay. The following applies: HepG2, 48 h.
For series [2], the system named is NCI-H596. The series can be described thus: Antiproliferative activity against human NCI-H596 cells measured after 48 hrs by MTT assay. The following applies: NCI-H596, 48 h. The format is functional, cell-based.
Series [3] has as its system A549. Briefly: Antiproliferative activity against human A549 cells measured after 48 hrs in presence of NQO1 inhibitor dicoumarol by MTT assay. The series is classed as functional, cell-based. The following applies: A549, 48 h.
A further series concerns L02. Briefly: Cytotoxicity against human L02 cells measured after 48 hrs by MTT assay. Particulars: L02, 48 h. The series is classed as cell-based.
Series [4] concerns the target NAD(P)H dehydrogenase [quinone] 1 (Homo sapiens, UniProt P15559). Briefly: Substrate activity at recombinant human C-terminal His-tagged NQO1 (1 to 274 residues) expressed in Escherichia coli assessed as metabolic rate by measuring NADPH oxidation per micromol protein at 10 mmol/L measured at 5 secs interval for 1 min by UV-Visible Spectrophotometric method. The format is ADME.

Series [5] concerns A549. Briefly: cells. The following applies: Homo sapiens, A549, 48 h.
The nature of the next series: in vitro. The following applies: human, L02 cells and A549 cells.
Series [6] deals with HepG2. Briefly: Induction of reactive oxygen species production in human HepG2 cells at 5 uM measured after 5 hrs by DCFH-DA staining based flow cytometry. The format is functional, cell-based.
Series [7] deals with NCI-H596. The series can be described thus: Induction of reactive oxygen species production in human NCI-H596 cells at 5 uM measured after 5 hrs by DCFH-DA staining based flow cytometry. The series is classed as functional, cell-based.
For series [8], the system named is HepG2. The series can be described thus: Antitumor activity against human HepG2 cells xenografted in BALB/c athymic nude mouse assessed as tumor growth inhibition at 20 mg/kg, iv administered at 2 days interval 19 days by caliper method relative to control. The series is classed as functional. The following applies: 456 h, time 19 day, read-out: TGI.

Molecules are shown by their SMILES. Active and inactive are the calls of the source. The calls are words filed in the database; no cut-off is given here.

Consider `O=C1C(=O)c2ccccc2C2=C1C(c1ccc(Cl)c(O)c1)NC(=S)N2` (configuration not stated), for which the IC50 was determined as 1580 nM in the series with HepG2 [1]; 1810 nM in the series with NCI-H596 [2]; 1410 nM with A549 [3]; 1580 nM in the series on L02; 640 nM with A549 [5]. Besides, the Drug metabolism in [4] is 734 micromol/min/micromol protein. In addition, the selectivity ratio in “in vitro” worked out at 2.47.
As to `CCOC(=O)C1=C(C)NC(=S)NC1c1cccc(O)c1` (configuration not stated) [MONASTROL], in series [4], the Drug metabolism entry is listed as “Metabolite_Notdetected”.
`O=C1C(=O)c2ccccc2C2=C1C(c1cc(O)ccc1F)NC(=S)N2` (configuration not stated): the IC50 in the series with HepG2 [1] is 1190 nM; in the series on NCI-H596 [2], 7690 nM; with A549 [3], 1510 nM; in the series on L02 it was 1560 nM; in the series with A549 [5] it was 980 nM. Also, the Drug metabolism in series [4] is given as 528 micromol/min/micromol protein. Moreover, the selectivity ratio in “in vitro” was determined as 1.59.
Consider `O=C1C(=O)c2ccccc2C2=C1C(c1cccc(O)c1Cl)NC(=S)N2` (configuration not stated), for which the IC50 is 1400 nM in the series on HepG2 [1]; 3090 nM in the series on NCI-H596 [2]; 1330 nM with A549 [3]; 1640 nM with L02; 1020 nM with A549 [5]. Besides, the Drug metabolism in series [4] is 1273 micromol/min/micromol protein. Also, the selectivity ratio in “in vitro” was 1.61.
Regarding `O=C1C(=O)c2ccc(Cl)cc2C2=C1C(c1cccc(O)c1)NC(=S)N2` (configuration not stated), the IC50 was 1380 nM in the series on HepG2 [1]; 1560 nM in the series on NCI-H596 [2]; 1260 nM with A549 [3]; 1680 nM in the series on L02; 950 nM in the series with A549 [5]. The Drug metabolism in series [4] is on record as 2398 micromol/min/micromol protein. In addition, the selectivity ratio in “in vitro” amounted to 1.77.
In the case of `CC1(C)CCC2=C(O1)c1ccccc1C(=O)C2=O` [LAPACHONE], the IC50 was 2830 nM with HepG2 [1]; 5060 nM with NCI-H596 [2]; 6000 nM in the series with A549 [3]; 4540 nM in the series with L02; 3320 nM in the series with A549 [5]. The outcome in the series with HepG2 [6] and with NCI-H596 [7] was Active. The inhibition in vivo at 20 mg/kg in the series on HepG2 [8] came out at 67.4%. Also, the selectivity ratio in “in vitro” is 1.37.
On to `O=C1C(=O)c2ccccc2C2=C1C(c1cc(O)cc(Cl)c1)NC(=S)N2` (configuration not stated), for which the IC50 turned out to be 1690 nM in the series with HepG2 [1]; 17100 nM in the series on NCI-H596 [2]; 1430 nM with A549 [3]; 4580 nM in the series on L02; 960 nM in the series with A549 [5]. Also, the Drug metabolism in series [4] is 941 micromol/min/micromol protein. The selectivity ratio in “in vitro” is 4.77.
On to `O=C1C(=O)c2cccc(Br)c2C2=C1C(c1cccc(O)c1)NC(=S)N2` (configuration not stated), for which the IC50 with HepG2 [1] worked out at 2890 nM; in the series on NCI-H596 [2], 1980 nM; in the series with A549 [3], 2020 nM; with L02, 1660 nM; in the series with A549 [5] it was 1940 nM. In [4], the Drug metabolism is on record as 2012 micromol/min/micromol protein. The selectivity ratio in “in vitro” was 0.86.
As to `COc1cc2c(cc1OC)C1=C(C(=O)C2=O)C(c2cccc(O)c2)NC(=S)N1` (configuration not stated), the IC50 with HepG2 [1] was 1530 nM; with NCI-H596 [2], 1760 nM; in the series on A549 [3], 1490 nM; in the series with L02 it was 1710 nM; with A549 [5], 1770 nM. In addition, the Drug metabolism in series [4] is on record as 614 micromol/min/micromol protein. Further, the selectivity ratio in the series “in vitro” is 0.97.
`Cc1cc(O)cc(C2NC(=S)NC3=C2C(=O)C(=O)c2ccccc23)c1` (configuration not stated): the IC50 in the series on HepG2 [1] worked out at 1340 nM; in the series with NCI-H596 [2], 10900 nM; in the series on A549 [3], 1210 nM; in the series with L02, 8410 nM; with A549 [5], 490 nM. The Drug metabolism in series [4] is 539 micromol/min/micromol protein. In addition, the selectivity ratio in the series “in vitro” came out at 17.2.
`COc1cccc2c1C(=O)c1c(O)c3c(c(O)c1C2=O)C[C@@](O)(C(=O)CO)C[C@@H]3O[C@H]1C[C@H](N)[C@H](O)[C@H](C)O1` [DOXORUBICIN]: the IC50 amounted to 1080 nM in the series on NCI-H596 [2], 1200 nM in the series with A549 [3], 2180 nM in the series on L02 and 1320 nM with A549 [5].
Regarding `O=C1C(=O)c2ccccc2C2=C1C(c1cccc(O)c1)NC(=S)N2` (configuration not stated), the IC50 is 2120 nM with HepG2 [1]; 2490 nM with NCI-H596 [2]; 1710 nM with A549 [3]; 2880 nM in the series with L02; 370 nM in the series with A549 [5]. Besides, in series [4], the Drug metabolism is 1128 micromol/min/micromol protein. The selectivity ratio in “in vitro” was 7.78.
As for `COc1ccc2c(c1)C1=C(C(=O)C2=O)C(c2cccc(O)c2)NC(=S)N1` (configuration not stated), the IC50 in the series on HepG2 [1] stood at 1570 nM; in the series with NCI-H596 [2], 2200 nM; in the series with A549 [3], 1190 nM; in the series with L02, 1750 nM; in the series with A549 [5], 300 nM. For the same compound, the Drug metabolism in series [4] was 997 micromol/min/micromol protein. Besides, the selectivity ratio in “in vitro” was 5.83.
As for `O=C1C(=O)c2ccccc2C2=C1C(c1cc(O)ccc1Br)NC(=S)N2` (configuration not stated), the IC50 in the series with HepG2 [1] came out at 1310 nM; in the series with NCI-H596 [2], 1610 nM; with A549 [3], 1550 nM; in the series with L02 it was 1510 nM; with A549 [5], 480 nM. Besides, the Drug metabolism in [4] was 1083 micromol/min/micromol protein. The selectivity ratio in the series “in vitro” was determined as 3.15.
For `O=C1C(=O)c2ccccc2C2=C1C(c1cc(O)cc(Br)c1)NC(=S)N2` (configuration not stated), the IC50 is 3200 nM with HepG2 [1]; 7600 nM in the series on NCI-H596 [2]; 3000 nM in the series with A549 [3]; 3050 nM in the series with L02; 2420 nM in the series on A549 [5]. Further, the Drug metabolism in series [4] is 852 micromol/min/micromol protein. Moreover, in the series “in vitro”, the selectivity ratio is 1.26.
`COc1ccc2c(c1)C1=C(C(=O)C2=O)C(c2cc(C)cc(O)c2)NC(=S)N1` (configuration not stated): the IC50 with HepG2 [1] was determined as 1700 nM; with NCI-H596 [2], 2520 nM; with A549 [3] it was 1500 nM; with L02, 1860 nM; in the series with A549 [5] it was 320 nM. For the same compound, in series [4], the Drug metabolism was 1427 micromol/min/micromol protein. Also, in “in vitro”, the selectivity ratio was found to be 5.81.
As to `O=C1C(=O)c2cc(F)ccc2C2=C1C(c1cccc(O)c1)NC(=S)N2` (configuration not stated), the IC50 in the series with HepG2 [1] is 1340 nM; in the series on NCI-H596 [2], 1580 nM; in the series with A549 [3], 1590 nM; in the series on L02, 1490 nM; with A549 [5] it was 870 nM. The Drug metabolism in series [4] is 1513 micromol/min/micromol protein. Further, the selectivity ratio in the series “in vitro” is 1.71.

The values above are taken from ChEMBL document CHEMBL4765385, “Synthesis and biological evaluation of β-lapachone-monastrol hybrids as potential anticancer agents” (Eur J Med Chem, 2020).
